One data set concerns the target IMP-1 (Serratia marcescens, UniProt P52699). The data set is described as follows: biochemical. It counts as biochemical. A digest of the protocol:
(§1)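 Class B activity is measured in the presence of compound by fluorescence with CCF2-FA after a 2-hour incubation at 25° C. IC50 is taken from a 4-parameter fit of semi-logarithmic dose-response data.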

Another data set concerns the target NDM-1 (Klebsiella pneumoniae, UniProt C7C422). The data set is described as follows: biochemical. Format: biochemical. To be noted: CCF2-FA substrate, 2 hours at 25° C; read-out: NDM-1 IC50. In short, it runs like this:
as §1

The target in another data set is VIM-1 (Pseudomonas aeruginosa (strain ATCC 15692 / DSM 22644 / CIP 104116 / JCM 14847 / LMG 12228 / 1C / PRS 101 / PAO1), UniProt A0A0F7KYQ8). The data set can be described thus: biochemical. Particulars: CCF2-FA substrate, 2 hours at 25° C. In short, it runs like this: as §1
For data set [1], the system named is Escherichia coli expressing NDM-1 (CLB30005, CLB30016). It counts as cell-based. Particulars: with imipenem 1 μg/ml, 95% inhibition of bacterial growth; for Escherichia coli MITC95: NDM-1 (CLB30016). A digest of the protocol:
(§2)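 Clinical strains grown overnight on blood agar, then diluted 1:100 in 1.1× CAMHB and exposed to test compound with imipenem at 1 μg/ml. Incubation was 22–24 h at 35° C; growth was read by absorbance to find the compound concentration restoring imipenem susceptibility.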

Data set [2] concerns Klebsiella pneumoniae expressing VIM-1 (IHMA599644). It counts as cell-based. Particulars: with imipenem 1 μg/ml, 95% inhibition of bacterial growth; for Klebsiella pneumoniae MITC95: VIM-1 (IHMA599644). A digest of the protocol:
as §2

In data set [3] the test system is Serratia marcescens expressing IMP-1 (CL5741). It counts as cell-based. Particulars: with imipenem 1 μg/ml, 95% inhibition of bacterial growth; for Serratia marcescens MITC95: IMP-1 (CL5741). A digest of the protocol: as §2
Data set [4] concerns P. aeruginosa expressing IMP-1, efflux+ (MB9798). Format: cell-based, Pseudomonas aeruginosa. To be noted: for P. aeruginosa expressing IMP-1, efflux+ (MB9798) MITC95: imipenem at 2 μg/mL, in the presence of a class A, C, D serine β-lactamase inhibitor closely related to relebactam; for Efflux ratio: ratio MITC95 PA_9798/MITC95 PA_9799. The text has this:
(§3) The strain background is Pseudomonas aeruginosa PAO1.

The test system of data set [5] is P. aeruginosa expressing IMP-1, efflux− (MB9799). The data set is described as follows: Efflux: concentration of MBL inhibitor which restores susceptibility to imipenem. Particulars: imipenem at 2 μg/mL, in the presence of a class A, C, D serine β-lactamase inhibitor closely related to relebactam. Format: cell-based, Pseudomonas aeruginosa.
Source text: as §3

Setting [6] is: CCF2-FA substrate, 2 hours at 25° C, read-out: IMP-1 IC50.

Results on five molecules are retold here after patent US10227331B2 (priority 2015, dated 2019).

Where two headings read alike, the source gives them in different places.

IMP-1, sequence (P52699 whole entry, looked up, species assumed): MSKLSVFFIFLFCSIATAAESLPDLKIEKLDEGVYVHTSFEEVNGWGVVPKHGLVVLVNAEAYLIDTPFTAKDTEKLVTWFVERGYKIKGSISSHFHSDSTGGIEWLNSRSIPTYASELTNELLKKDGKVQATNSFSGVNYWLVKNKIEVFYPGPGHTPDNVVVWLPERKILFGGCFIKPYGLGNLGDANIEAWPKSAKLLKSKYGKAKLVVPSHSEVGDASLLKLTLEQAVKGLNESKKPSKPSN
NDM-1, sequence (C7C422 whole entry, looked up, species assumed): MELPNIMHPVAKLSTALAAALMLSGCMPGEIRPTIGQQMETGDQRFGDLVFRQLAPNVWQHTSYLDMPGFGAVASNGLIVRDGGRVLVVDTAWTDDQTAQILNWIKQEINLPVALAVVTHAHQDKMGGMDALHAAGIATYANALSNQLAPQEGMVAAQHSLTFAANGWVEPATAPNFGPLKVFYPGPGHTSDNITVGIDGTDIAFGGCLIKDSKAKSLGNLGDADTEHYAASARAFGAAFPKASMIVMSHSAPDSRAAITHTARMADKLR

As for `NCCS(=O)(=O)c1ccc(-c2ccc(C3CCNCC3)cc2)c(-c2nn[nH]n2)c1S(N)(=O)=O` [Example 322, 4-((2-aminoethyl)sulfonyl)-4′-(piperidin-4-yl)-2-(2H-tetrazol-5-yl)-[1,1′-biphenyl]-3-sulfonamide], the IC50 was determined as 170 pM on IMP-1 (setting [6]), 731 pM at NDM-1 and 205 pM against VIM-1. Further, the “Escherichia coli MITC95” value in data set [1] was found to be 1.563 µM. For the same molecule, the “Klebsiella pneumoniae MITC95” value in data set [2] is 3.125 µM. The “Serratia marcescens MITC95” value in data set [3] stood at 1.563 µM. For the same molecule, the “P. aeruginosa expressing IMP-1, efflux+ (MB9798) MITC95” value in data set [4] turned out to be 1.563 µM. The Efflux ratio in data set [4] amounted to 2.00. Besides, the “P. aeruginosa expressing IMP-1, efflux− (MB9799) MITC95” value in data set [5] was 0.7813 µM.

Take `Nc1nc2c(-c3ccc(S(=O)(=O)[C@H]4CCNC4)c(S(N)(=O)=O)c3-c3nn[nH]n3)cccc2o1` [Example 190, 3-(2-aminobenzo[d]oxazol-4-yl)-6-((S)-pyrrolidin-3-ylsulfonyl)-2-(2H-tetrazol-5-yl)benzenesulfonamide]: the results for the IC50 against IMP-1, on NDM-1 and against VIM-1 were 352 pM, 113 pM and 169 pM, respectively. For the same molecule, the “Escherichia coli expressing NDM-1 (CLB30016) MITC95” value in data set [1] turned out to be 1.563 µM. In addition, the “Klebsiella pneumoniae expressing VIM-1 (IHMA599644) MITC95” value in data set [2] worked out at 3.125 µM. The “Serratia marcescens expressing IMP-1 (CL5741) MITC95” value in data set [3] is 1.563 µM. Also, in data set [4], the “P. aeruginosa expressing IMP-1, efflux+ (MB9798) MITC95” value was determined as 1.563 µM. Besides, the Efflux ratio in data set [4] is 1.00. Also, the “P. aeruginosa expressing IMP-1, efflux− (MB9799) MITC95” value in data set [5] was 1.563 µM.

Regarding `Nc1nc2c(-c3ccc(S(=O)(=O)c4cccc(C(F)(F)F)c4)c(S(N)(=O)=O)c3-c3nn[nH]n3)cccc2s1` [Example 250, 3-(2-Aminobenzo[d]thiazol-4-yl)-2-(2H-tetrazol-5-yl)-6-((3-(trifluoromethyl)phenyl)sulfonyl)benzenesulfonamide], the IC50 was found to be 820 pM on IMP-1 (setting [6]), 245 pM at NDM-1 and 681 pM against VIM-1. For the same molecule, the “Escherichia coli MITC95” value in data set [1] worked out at 6.25 µM. The “Klebsiella pneumoniae MITC95” value in data set [2] was determined as 100 µM. Also, the “Serratia marcescens MITC95” value in data set [3] stood at 6.25 µM. In addition, the “P. aeruginosa expressing IMP-1, efflux+ (MB9798) MITC95” value in data set [4] was determined as 200 µM. Further, in data set [4], the Efflux ratio is on record as 64.00. Further, in data set [5], the “P. aeruginosa expressing IMP-1, efflux− (MB9799) MITC95” value stood at 3.125 µM.

In the case of `NS(=O)(=O)c1c(S(=O)(=O)C2CNC2)ccc(-c2cccc3ncccc23)c1-c1nnn[nH]1.O=C(O)C(F)(F)F` [Example 118, 3-((4-(quinolin-5-yl)-2-sulfamoyl-3-(1H-tetrazol-5-yl)phenyl)sulfonyl)azetidin-1-ium 2,2,2-trifluoroacetate], the IC50 was 1420 pM at IMP-1 (setting [6]), 145 pM on NDM-1 and 388 pM against VIM-1. In addition, the “Escherichia coli expressing NDM-1 (CLB30016) MITC95” value in data set [1] came to 3.125 µM. Also, the “Klebsiella pneumoniae expressing VIM-1 (IHMA599644) MITC95” value in data set [2] came to 6.25 µM. The “Serratia marcescens expressing IMP-1 (CL5741) MITC95” value in data set [3] was 6.25 µM. Besides, the “P. aeruginosa expressing IMP-1, efflux+ (MB9798) MITC95” value in data set [4] worked out at 12.5 µM. Besides, the Efflux ratio in data set [4] turned out to be 4.00. The “P. aeruginosa expressing IMP-1, efflux− (MB9799) MITC95” value in data set [5] is 3.125 µM.

As to `Nc1nc2c(-c3ccc(S(=O)(=O)CCO)c(S(N)(=O)=O)c3-c3nn[nH]n3)cccc2s1` [Example 314, 3-(2-aminobenzo[d]thiazol-4-yl)-6-((2-hydroxyethyl)sulfonyl)-2-(2H-tetrazol-5-yl)benzenesulfonamide], the IC50 at IMP-1 (setting [6]) was found to be 445 pM; on NDM-1, 379 pM; against VIM-1, 726 pM. Besides, in data set [1], the “Escherichia coli MITC95” value was found to be 12.5 µM. Besides, the “Klebsiella pneumoniae MITC95” value in data set [2] stood at 12.5 µM. Moreover, in data set [3], the “Serratia marcescens MITC95” value was determined as 6.25 µM. Moreover, the “P. aeruginosa expressing IMP-1, efflux+ (MB9798) MITC95” value in data set [4] stood at 12.5 µM. The Efflux ratio in data set [4] was determined as 2.00. The “P. aeruginosa expressing IMP-1, efflux− (MB9799) MITC95” value in data set [5] amounted to 6.25 µM.
